Where two headings read alike, the source gives them in different places.
How the values were obtained:
[1] = biological target: T1, Noradrenaline (NA) reuptake (Rattus norvegicus, UniProt Q63380); experiment: Noradrenaline (NA) reuptake inhibition in rat brain synaptosomes (hypothalamus, P2 fraction); assay type: biochemical; conditions: for inhibition at 10 µM: read-out: NA reuptake, % inhibition [10 μM]
T1 construct: synaptosomes are freshly isolated from areas of rat brain; from tissue; host or cells: rat hypothalamus synaptosomes (P2 fraction)
T1 sequence (Q63380 1-617): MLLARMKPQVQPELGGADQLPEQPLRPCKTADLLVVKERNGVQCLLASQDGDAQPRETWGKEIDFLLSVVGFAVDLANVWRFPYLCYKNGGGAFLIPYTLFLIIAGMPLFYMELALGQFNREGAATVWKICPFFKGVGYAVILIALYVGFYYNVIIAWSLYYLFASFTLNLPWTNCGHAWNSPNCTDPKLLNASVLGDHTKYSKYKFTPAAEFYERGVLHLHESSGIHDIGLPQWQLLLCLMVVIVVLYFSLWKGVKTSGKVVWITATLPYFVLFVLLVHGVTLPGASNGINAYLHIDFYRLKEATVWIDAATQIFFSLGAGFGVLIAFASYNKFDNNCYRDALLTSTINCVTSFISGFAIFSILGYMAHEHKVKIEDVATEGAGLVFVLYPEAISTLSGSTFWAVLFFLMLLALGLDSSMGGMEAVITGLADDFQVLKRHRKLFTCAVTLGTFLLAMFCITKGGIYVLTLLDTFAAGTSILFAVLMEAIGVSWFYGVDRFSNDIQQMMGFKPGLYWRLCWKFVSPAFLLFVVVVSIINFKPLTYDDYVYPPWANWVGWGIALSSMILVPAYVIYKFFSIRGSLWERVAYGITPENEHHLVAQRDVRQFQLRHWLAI
Text: (§1) Noradrenaline (NA) and Serotonin (5HT) Reuptake Inhibition
(§2) In order to be able to carry out these studies in vitro, synaptosomes are freshly isolated from areas of rat brain. A so-called “P2” fraction prepared by the method of Gray and Whittaker (E. G. Gray and V. P. Whittaker (1962) J. Anat. 76, 79-88) is used in each case. For the NA uptake, these vesicular particles are isolated from the hypothalamus of male rat brains.
(§3) A detailed description of the method will be found in the literature (M. Ch. Frink, H. H. Hennies, W. Englberger, M. Haurand and B. Wilffert (1996) Arzneim.-Forsch./Drug Res. 46 (III), 11, 1029-1036).

Serotonin (5HT) reuptake = biological target: T2, Serotonin (5HT) reuptake (Rattus norvegicus, UniProt P31652); experiment: Serotonin (5HT) reuptake inhibition in rat brain synaptosomes (P2 fraction); assay type: biochemical; conditions: for inhibition at 10 µM: read-out: Serotonin reuptake, % inhibition [10 μM]
T2 construct: synaptosomes are freshly isolated from areas of rat brain; from tissue; host or cells: rat brain synaptosomes (P2 fraction)
T2 sequence (P31652 whole entry): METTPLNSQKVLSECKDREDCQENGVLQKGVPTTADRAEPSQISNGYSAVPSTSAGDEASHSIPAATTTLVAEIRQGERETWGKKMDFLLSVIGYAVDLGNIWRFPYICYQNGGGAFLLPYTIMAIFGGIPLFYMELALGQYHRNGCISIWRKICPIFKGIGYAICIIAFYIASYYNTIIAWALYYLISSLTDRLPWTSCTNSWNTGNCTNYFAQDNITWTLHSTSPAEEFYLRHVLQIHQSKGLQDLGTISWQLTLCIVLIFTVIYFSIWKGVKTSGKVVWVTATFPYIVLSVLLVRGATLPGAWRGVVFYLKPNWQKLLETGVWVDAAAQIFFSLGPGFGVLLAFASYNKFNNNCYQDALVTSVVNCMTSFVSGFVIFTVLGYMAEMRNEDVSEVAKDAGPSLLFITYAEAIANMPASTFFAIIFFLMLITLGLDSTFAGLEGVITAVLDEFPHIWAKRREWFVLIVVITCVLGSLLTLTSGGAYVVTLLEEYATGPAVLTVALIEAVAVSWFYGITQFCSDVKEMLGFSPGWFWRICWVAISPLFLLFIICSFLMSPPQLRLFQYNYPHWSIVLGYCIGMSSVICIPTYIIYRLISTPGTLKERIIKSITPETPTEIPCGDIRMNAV
Text: as §1, §2, §3

human μ-opiate receptor = human μ-opiate receptor (Homo sapiens, UniProt P35372); experiment: Affinity for the human μ-opiate receptor ([3H]-naloxone displacement, SPA, CHO-K1 membrane preparation); assay type: binding; conditions: for inhibition at 1 µM: 1 μM test substance, inhibition of specific [3H]-naloxone binding, read-out: μ-Opioid receptor, % inhibition [1 μM]; for Ki: read-out: μ-Opioid receptor, Ki
Sequence of human μ-opiate receptor (P35372 whole entry): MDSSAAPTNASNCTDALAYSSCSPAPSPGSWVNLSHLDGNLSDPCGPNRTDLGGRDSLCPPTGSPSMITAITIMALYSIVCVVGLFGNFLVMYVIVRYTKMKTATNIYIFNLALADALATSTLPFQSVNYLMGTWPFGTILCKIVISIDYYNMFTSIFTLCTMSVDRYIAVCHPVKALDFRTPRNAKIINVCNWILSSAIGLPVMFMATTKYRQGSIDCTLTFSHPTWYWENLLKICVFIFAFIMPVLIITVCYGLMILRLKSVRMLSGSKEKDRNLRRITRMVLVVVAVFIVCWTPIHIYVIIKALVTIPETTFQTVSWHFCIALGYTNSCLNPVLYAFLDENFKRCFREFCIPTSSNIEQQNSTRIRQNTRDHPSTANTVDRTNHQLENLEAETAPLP

[2] = [3H]-naloxone, human μ-opiate receptor membranes

CN(C)C(c1ccccc1)C1CCC(N)CC1 (centres unmarked) [compound 17, 4-(dimethylamino-phenyl-methyl)-cyclohexylamine]
Ki ([1]; rat brain synaptosomes (hypothalamus), read-out: NA reuptake, Ki): 870 nM | inhibition at 10 µM [1]: 92% | Ki (Serotonin (5HT) reuptake; rat brain synaptosomes, read-out: Serotonin reuptake, Ki): 860 nM | inhibition at 10 µM (Serotonin (5HT) reuptake): 86% | inhibition at 1 µM (human μ-opiate receptor): 83% | Ki (human μ-opiate receptor; [2]): 440 nM

CN(C)C(c1ccc(F)cc1)C1CCC(N)CC1 (centres unmarked) [compound 19, 4-[dimethylamino-(4-fluorophenyl)-methyl]-cyclohexylamine]
inhibition at 10 µM [1]: 93% | inhibition at 10 µM (Serotonin (5HT) reuptake): 87%

CN(C)C(c1cccc(F)c1)C1CCC(N)CC1 (centres unmarked) [compound 21, 4-[dimethylamino-(3-fluorophenyl)-methyl]-cyclohexylamine]
inhibition at 10 µM [1]: 90% | inhibition at 10 µM (Serotonin (5HT) reuptake): 80% | inhibition at 1 µM (human μ-opiate receptor): 48%

CN(C)C(c1ccc(Cl)cc1)C1CCC(N)CC1 (centres unmarked) [compound 23, 4-[(4-chlorophenyl)-dimethylamino-methyl]-cyclohexylamine]
inhibition at 10 µM [1]: 97% | inhibition at 10 µM (Serotonin (5HT) reuptake): 64% | inhibition at 1 µM (human μ-opiate receptor): 58%

CN(C)C(c1cccs1)C1CCC(N)CC1 (centres unmarked) [compound 25, 4-(dimethylamino-thiophen-2-yl-methyl)-cyclohexylamine]
inhibition at 10 µM [1]: 84% | inhibition at 10 µM (Serotonin (5HT) reuptake): 71% | inhibition at 1 µM (human μ-opiate receptor): 74% | Ki (human μ-opiate receptor; [2]): 260 nM

CN(C)C(CCc1ccccc1)C1CCC(N)CC1 (centres unmarked) [compound 27, 4-(1-dimethylamino-3-phenyl-propyl)-cyclohexylamine]
inhibition at 10 µM [1]: 95% | inhibition at 10 µM (Serotonin (5HT) reuptake): 78%

CN(C)C(c1ccccc1)C1CCC(C=O)CC1 (centres unmarked) [compound 28, 4-(Dimethylamino-phenyl-methyl)-cyclohexane-carbaldehyde]
inhibition at 10 µM [1]: 84% | inhibition at 10 µM (Serotonin (5HT) reuptake): 85% | inhibition at 1 µM (human μ-opiate receptor): 69%

CN(C)C(c1ccccc1)C1CCC(CN)CC1 (centres unmarked) [compound 30, [(4-aminomethyl-cyclohexyl)-phenyl-methyl]-dimethylamine]
inhibition at 10 µM [1]: 89% | inhibition at 10 µM (Serotonin (5HT) reuptake): 89% | inhibition at 1 µM (human μ-opiate receptor): 94% | Ki (human μ-opiate receptor): 210 nM

CN(C)C(c1ccc(F)cc1)C1CCC(CN)CC1 (centres unmarked) [compound 33, [(4-aminomethyl-cyclohexyl)-(4-fluorophenyl)-methyl]-dimethylamine]
inhibition at 10 µM [1]: 94% | inhibition at 10 µM (Serotonin (5HT) reuptake): 95%

CN(C)C(c1cccc(F)c1)C1CCC(C=O)CC1 (centres unmarked) [compound 34, 4-[Dimethylamino-(3-fluorophenyl)-methyl]-cyclohexane-carbaldehyde]
inhibition at 10 µM [1]: 87% | inhibition at 10 µM (Serotonin (5HT) reuptake): 87% | inhibition at 1 µM (human μ-opiate receptor): 34%

CN(C)C(c1cccc(F)c1)C1CCC(CN)CC1 (centres unmarked) [compound 36, [(4-aminomethyl-cyclohexyl)-(3-fluorophenyl)-methyl]-dimethylamine]
Ki [1]: 110 nM | inhibition at 10 µM [1]: 93% | Ki (Serotonin (5HT) reuptake): 96 nM | inhibition at 10 µM (Serotonin (5HT) reuptake): 89% | inhibition at 1 µM (human μ-opiate receptor): 68%

CN(C)C(c1ccc(Cl)cc1)C1CCC(C=O)CC1 (centres unmarked) [compound 37, 4-[(4-Chloro-phenyl)-dimethylamino-methyl]-cyclohexane-carbaldehyde]
inhibition at 10 µM [1]: 97% | inhibition at 10 µM (Serotonin (5HT) reuptake): 75%

CN(C)C(c1cccs1)C1CCC(C=O)CC1 (centres unmarked) [compound 40, 4-(Dimethylamino-thiophen-2-yl-methyl)-cyclohexanecarbaldehyde]
inhibition at 10 µM [1]: 77% | inhibition at 10 µM (Serotonin (5HT) reuptake): 78%

CN(C)C(CCc1ccccc1)C1CCC(C=O)CC1 (centres unmarked) [compound 43, 4-(1-Dimethylamino-3-phenyl-propyl)-cyclohexane-carbaldehyde]
inhibition at 10 µM [1]: 98% | inhibition at 10 µM (Serotonin (5HT) reuptake): 80%

CN(C)C(CCc1ccccc1)C1CCC(CN)CC1 (centres unmarked) [compound 45, [1-(4-aminomethyl-cyclohexyl)-3-phenyl-propyl]-dimethylamine]
inhibition at 10 µM [1]: 96% | inhibition at 10 µM (Serotonin (5HT) reuptake): 90%

CN(C)C(c1ccc(F)cc1)C1CCC(CCN)CC1 (centres unmarked) [compound 51, 2-{4-[dimethylamino-(4-fluorophenyl)-methyl]-cyclohexyl}-ethylamine]
inhibition at 10 µM [1]: 98% | inhibition at 10 µM (Serotonin (5HT) reuptake): 97%

CN(C)C(c1cccc(F)c1)C1CCC(CC=O)CC1 (centres unmarked) [compound 52, {4-[Dimethylamino-(3-fluorophenyl)-methyl]-cyclohexyl}-acetaldehyde]
inhibition at 10 µM [1]: 96% | inhibition at 10 µM (Serotonin (5HT) reuptake): 94%

CN(C)C(c1ccc(Cl)cc1)C1CCC(CC=O)CC1 (centres unmarked) [compound 55, {4-[(4-Chlorophenyl)-dimethylamino-methyl]-cyclohexyl}-acetaldehyde]
inhibition at 10 µM [1]: 95% | inhibition at 10 µM (Serotonin (5HT) reuptake): 88%

CN(C)C(CCc1ccccc1)C1CCC(CC=O)CC1 (centres unmarked) [compound 70, [4-(1-Dimethylamino-3-phenyl-propyl)-cyclohexyl]-acetaldehyde]
inhibition at 10 µM [1]: 93% | inhibition at 10 µM (Serotonin (5HT) reuptake): 70%

CN(C)C(CCc1ccccc1)C1CCC(CCN)CC1 (centres unmarked) [compound 72, {1-[4-(2-amino-ethyl)-cyclohexyl]-3-phenyl-propyl}-dimethylamine]
inhibition at 10 µM [1]: 91% | inhibition at 10 µM (Serotonin (5HT) reuptake): 79%

CCOC(=O)C=CC1CCC(C(CCc2ccccc2)N(C)C)CC1 (centres unmarked) [compound 141, 3-[4-(1-dimethylamino-3-phenyl-propyl)-cyclohexyl]-acrylic acid ethyl ester]
inhibition at 10 µM [1]: 98% | inhibition at 10 µM (Serotonin (5HT) reuptake): 83%

CCOC(=O)CCC1CCC(C(CCc2ccccc2)N(C)C)CC1 (centres unmarked) [compound 142, 3-[4-(1-dimethylamino-3-phenyl-propyl)-cyclohexyl]-propionic acid ethyl ester]
inhibition at 10 µM [1]: 99% | inhibition at 10 µM (Serotonin (5HT) reuptake): 84%

COc1cccc(NC(=O)CC2CCC(C(Cc3ccccc3)N3CCCC3)CC2)c1 (centres unmarked) [compound 492, N-(3-methoxyphenyl)-2-(4-(2-phenyl-1-(pyrrolidin-1-yl)ethyl)cyclohexyl)-acetamide]
inhibition at 10 µM [1]: 54% | inhibition at 10 µM (Serotonin (5HT) reuptake): 3%

COc1ccc(NC(=O)C=C2CCC(C(c3ccc(C)cc3)N3CCCCC3)CC2)cc1 (centres unmarked) [compound 493, N-(4-methoxyphenyl)-2-(4-(piperidin-1-yl(p-tolyl)methyl)cyclohexylidene)-acetamide]
inhibition at 10 µM [1]: 27% | inhibition at 10 µM (Serotonin (5HT) reuptake): 38%

Cc1ccc(C(C2CCC(=CC(=O)NCCc3ccccc3)CC2)N2CCCCC2)cc1 (centres unmarked) [compound 494, N-phenethyl-2-(4-(piperidin-1-yl(p-tolyl)methyl)cyclohexylidene)acetamide]
inhibition at 10 µM [1]: 81% | inhibition at 10 µM (Serotonin (5HT) reuptake): 40%

O=C(C=C1CCC(C(Cc2ccccc2)N2CCCC2)CC1)NCc1ccccn1 (centres unmarked) [compound 495, 2-(4-(2-phenyl-1-(pyrrolidin-1-yl)ethyl)cyclohexylidene)-N-(pyridin-2-ylmethyl)acetamide]
inhibition at 10 µM [1]: 16% | inhibition at 10 µM (Serotonin (5HT) reuptake): 7%

Cc1ccc(C(C2CCC(=CC(=O)N(C)Cc3ccccc3)CC2)N2CCCCC2)cc1 (centres unmarked) [compound 496, N-benzyl-N-methyl-2-(4-(piperidin-1-yl(p-tolyl)methyl)cyclohexylidene)-acetamide]
inhibition at 10 µM [1]: 26% | inhibition at 10 µM (Serotonin (5HT) reuptake): 18%

CN(C)C(c1cccc(F)c1)C1CCC(NC(=O)c2nc(CC3CC3)no2)CC1 (centres unmarked) [compound 500, 3-cyclopropylmethyl-[1,2,4]oxadiazole-5-carboxylic acid {4-[dimethylamino-(3-fluoro-phenyl)-methyl]-cyclohexyl}-amide]
inhibition at 10 µM [1]: 101%

COCc1noc(C(=O)NCCC2CCC(C(CCc3ccccc3)N(C)C)CC2)n1 (centres unmarked) [compound 501, 3-methoxymethyl-[1,2,4]oxadiazole-5-carboxylic acid {2-[4-(1-dimethylamino-3-phenyl-propyl)-cyclohexyl]-ethyl}-amide]
inhibition at 10 µM [1]: 106%
